According to patent EP4177246A1, “FUSED OXAZEPINES AS INHIBITORS OF PEROXIREDOXINS” (Centro Atlántico del Medicamento, SA, priority 2021, dated 2023):

Experiments:
[1] = tested on: K562; assay: MTT cell viability assay, K562 cells; assay type: cell-based; settings: Homo sapiens, 48 h drug exposure
Protocol: K562 [American Type Culture Collection (ATCC) reference number CCL-243]. This a human cancer cell line derived from the bone marrow of a person with CML.
(§1) Cell viability was assayed by measuring the mitochondrial reduction of the tetrazolium salt 3-(4,5-methyltiazol-2yl)-2,5diphenyl-tetrazolium bromide] (MTT) (Applichen; A2231,0010) [Mosmann T. J Immunol Methods. 1983 16;65(1-2):55-63 (ref. 36); Chuan Y-C et al 2010. Oncogene. 29 (10), 1531-1542 (ref. 37)]. Cells were seeded in 96-well plates in medium (either RPMI, DMEM or McCoys depending on the recommendations from the ATCC) supplemented with 10% FBS (Lonza Cat. N°: 14-502F), 2mM L-Glut (Lonza Cat. N°: BE17-605E) and 100U/ml PEST (Lonza Cat. N°: DE17-605E) at a cell density of 1000-5000 cells/well (96 well plate). Cells were seeded at a density according to their exponential growth phase (normally 1000 to 5000/well). The cells were cultured at 37 °C in the dark in air containing 5% CO2. After 24h either vehicle (0.05% DMSO) or drug were added to culture medium at the indicated concentrations (10 to 0,01microM). After another 48 h, MTT (0.3 mg/ml) was added to cells, followed by incubation for 2-4h at 37 °C in the dark. The medium was then removed and the precipitated formazan was solubilized by the addition of DMSO (200 µL).
(§2) The optical density was measured at 595 nm with the iMark Microplate Reader (BioRad, USA). Data was expressed as percent growth above the level in controls and the results in figures were plotted as means ± SEM of each test point from 3 replicates.
(§3) Statistical analysis. The concentration of drug that provokes 50% reduction of cell viability (IC50) was determined by using non-linear regression analysis and data were fitted to a log concentration vs normalized response curve in GraphPad software v5 (San Diego, CA).

[2] = tested on: MDA-MB-231; assay: MTT cell viability assay, MDA-MB-231 cells; assay type: cell-based, human; settings: 48 h drug exposure
Protocol: MDA-MB-231 [American Type Culture Collection (ATCC) reference number HTB-26]. This a human breast cancer cell line derived from a metastatic site from a person.
as §1, §2, §3

[3] = tested on: HEL 92.1.7; assay: MTT cell viability assay, HEL cells; assay type: cell-based; settings: Homo sapiens, 48 h drug exposure
Protocol: HEL 92.1.7 [American Type Culture Collection (ATCC) reference number TIB-180]. This a human cancer cell line derived from the bone marrow of a person with erythroleukemia, which is a form of AML.
as §1, §2, §3

Row | IC50 ([2]; Homo sapiens) | SMILES | IC50 [3] | also measured
1 |  | O=C1C2=C(C(=O)c3ccccc31)N(c1ccc(Cl)cc1)Cc1ccccc1O2 [Compound 3] |  | IC50 [1]: 0.9 µM
2 |  | O=C1C2=C(C(=O)c3ccccc31)N(c1ccccn1)Cc1ccccc1O2 [Compound 5, 12-(pyridin-2-yl)-12,13-dihydrobenzo[f]naphtho[2,3-b][1,4]oxazepine-6,11-dione] |  | IC50 [1]: 0.43 µM
3 |  | COc1cccc2c1OC1=C(C(=O)c3ccccc3C1=O)N(c1ccc(C(N)=O)cc1)C2 [Compound 7] |  | IC50 [1]: 0.89 µM
4 |  | COc1ccc2c(c1)OC1=C(C(=O)c3ccccc3C1=O)N(c1ccc(C#N)cc1)C2 [Compound 14] |  | IC50 [1]: 0.97 µM
5 |  | O=C(O)c1ccc(N2Cc3ccccc3OC3=C2C(=O)c2ccccc2C3=O)cc1 [Compound 18] |  | IC50 [1]: > 10 µM
6 |  | NS(=O)(=O)c1ccc(N2Cc3cc(Cl)ccc3OC3=C2C(=O)c2ccccc2C3=O)cc1 [Compound 20] |  | IC50 [1]: 1.42 µM
7 |  | NC(=O)c1ccc(N2Cc3cc(Cl)ccc3OC3=C2C(=O)c2ccccc2C3=O)cc1 [Compound 21] |  | IC50 [1]: 1.12 µM
8 | 1.73 µM | O=C1C2=C(Oc3ccccc3CN2c2cccnc2)C(=O)c2c1cccc2[N+](=O)[O-] [Compound 27] |  | 
9 | 2 µM | O=C1C2=C(C(=O)c3c1cccc3[N+](=O)[O-])N(c1cccnc1)Cc1ccccc1O2 [Compound 28] |  | 
10 | > 10 µM | NS(=O)(=O)c1ccc(N2Cc3ccccc3OC3=C2C(=O)c2ccc(S(=O)(=O)N4CCOCC4)cc2C3=O)cc1 [Compound 29] |  | 
11 | 0.89 µM | COc1ccc(OC)c2c1C(=O)C1=C(C2=O)N(c2ccc(C#N)cc2)Cc2ccccc2O1 [Compound 30] |  | 
12 | 1.51 µM | COc1cc(F)c(OC)c2c1C(=O)C1=C(Oc3ccccc3CN1c1ccc(C#N)cc1)C2=O [Compound 31] |  | 
13 | 0.79 µM | CN1CCN(c2cc(O)c3c(c2O)C(=O)C2=C(C3=O)N(c3ccc(C#N)cc3)Cc3ccccc3O2)CC1 [Compound 32] |  | 
14 | 0.72 µM | CN1CCN(c2cc(O)c3c(c2O)C(=O)C2=C(C3=O)N(c3cccnc3)Cc3ccccc3O2)CC1 [Compound 33] |  | 
15 | 0.74 µM | N#Cc1ccc(N2Cc3ccccc3OC3=C2C(=O)c2c(O)cc(F)c(O)c2C3=O)cc1 [Compound 34] |  | 
16 | 0.8 µM | COc1cc(F)c(OC)c2c1C(=O)C1=C(Oc3ccccc3CN1c1cccnc1)C2=O [Compound 35] |  | 
17 | 0.25 µM | COc1ccc(N2Cc3ccccc3OC3=C2C(=O)c2c(O)ccc(O)c2C3=O)cc1 [Compound 46] | 0.11 µM | 
18 | 0.33 µM | O=C1C2=C(C(=O)c3c(O)ccc(O)c31)N(c1ccc(Cl)nc1)Cc1ccccc1O2 [Compound 47, 12-(6-chloropyridin-3-yl)-7,10-dihydroxy-12,13-dihydrobenzo[f]naphtho[2,3-b][1,4]-oxazepine-6,11-dione] |  | 
19 | 0.27 µM | COC(=O)c1ccc(N2Cc3ccccc3OC3=C2C(=O)c2c(O)ccc(O)c2C3=O)cc1 [Compound 48] | 0.1 µM | 
20 |  | O=C(O)c1ccc2c(c1)CN(c1ccccc1)C1=C(O2)C(=O)c2c(O)ccc(O)c2C1=O [Compound 50] | 2.42 µM | 
21 | 0.6 µM | CCOC(=O)c1ccc2c(c1)CN(c1cccnc1)C1=C(O2)C(=O)c2c(O)ccc(O)c2C1=O [Compound 51] | 3.31 µM | 
22 | > 10 µM | O=C(O)c1ccc2c(c1)CN(c1cccnc1)C1=C(O2)C(=O)c2c(O)ccc(O)c2C1=O [Compound 52] | > 10 µM | 
23 | 0.64 µM | CC(=O)Oc1ccc(OC(C)=O)c2c1C(=O)C1=C(C2=O)N(c2ccc(C(=O)O)cc2)Cc2ccccc2O1 [Compound 53] | 0.12 µM | 

Row | IC50 ([2]; Homo sapiens) | SMILES | IC50 [3] | also measured
24 | 1.17 µM | O=C(O)c1ccc(N2Cc3ccccc3OC3=C2C(=O)c2c(O)ccc(O)c2C3=O)cc1 [Compound 57] | 0.13 µM | 
25 | 0.5 µM | O=C1C2=C(C(=O)c3c(O)ccc(O)c31)N(c1ccc(C(=O)N3CCOCC3)cc1)Cc1ccccc1O2 [Compound 58, 7,10-dihydroxy-12-(4-(morpholine-4-carbonyl)phenyl)-12,13-dihydrobenzo[f]naphtho[2,3-b][1,4]oxazepine-6,11-dione] |  | 
26 | 0.41 µM | CC(=O)Oc1ccc(OC(C)=O)c2c1C(=O)C1=C(C2=O)N(c2cccnc2)Cc2ccccc2O1 [Compound 60, 6,11-dioxo-12-(pyridin-3-yl)-6,11,12,13-tetrahydrobenzo[f]naphtho[2,3-b][1,4] oxazepine-7,10-diyl diacetate] | 0.08 µM | 
27 | 0.25 µM | NCCN(CCO)c1ccc(N2Cc3ccccc3OC3=C2C(=O)c2c(O)ccc(O)c2C3=O)cn1 [Compound 63] | 0.09 µM | 
28 |  | CCOC(=O)c1ccc2c(c1)CN(c1ccccc1)C1=C(O2)C(=O)c2c(O)ccc(O)c2C1=O [Compound 64] | 5.89 µM | IC50 [1]: 1.3 µM
29 | 0.28 µM | CC(=O)Oc1ccc(OC(C)=O)c2c1C(=O)C1=C(C2=O)N(c2ccc(C#N)cc2)Cc2ccccc2O1 [Compound 67, 12-(4-cyanophenyl)-6,11-dioxo-6,11,12,13-tetrahydrobenzo[f]naphtho[2,3-b][1,4] oxazepine-7,10-diyl diacetate] | 0.23 µM | 
30 | 7.1 µM | N#Cc1ccc(N2Cc3ccccc3OC3=C2C(=O)c2ccc(S(=O)(=O)N4CCOCC4)cc2C3=O)cc1 [Compound 70] |  | 
31 | 3.2 µM | O=C1C2=C(C(=O)c3ccc(S(=O)(=O)N4CCOCC4)cc31)N(c1cccnc1)Cc1ccccc1O2 [Compound 71] |  | 
32 | 0.72 µM | CN(C)CCOc1ccc(N2Cc3ccccc3OC3=C2C(=O)c2ccccc2C3=O)cn1 [Compound 72] |  | 
33 | 1.8 µM | N#Cc1ccc(N2Cc3ccccc3OC3=C2C(=O)c2ccc(Br)c(O)c2C3=O)cc1 [Compound 74, 4-(8-bromo-7-hydroxy-6,11-dioxo-6,11-dihydrobenzo[f]naphtho[2,3-b][1,4]oxazepin-12(13H)-yl)benzonitrile] |  | 
34 | 6.9 µM | CS(=O)(=O)Nc1cccc2c1C(=O)C1=C(C2=O)N(c2ccc(C#N)cc2)Cc2ccccc2O1 [Compound 78, N-(12-(4-cyanophenyl)-6,11-dioxo-6,11,12,13-tetrahydrobenzo[f]naphtha [2,3-b][1,4]oxazepin-7-yl)methanesulfonamide] |  | 
35 | 6.8 µM | NS(=O)(=O)c1ccc(N2Cc3ccccc3OC3=C2C(=O)c2cccc([N+](=O)[O-])c2C3=O)cc1 [Compound 79] |  | 
36 | 6.6 µM | NS(=O)(=O)c1ccc(N2Cc3ccccc3OC3=C2C(=O)c2c(cccc2[N+](=O)[O-])C3=O)cc1 [Compound 80] |  | 
37 | 0.8 µM | CC(=O)Oc1ccc(OC(C)=O)c2c1C(=O)C1=C(C2=O)N(c2cccc(C#N)c2)Cc2ccccc2O1 [Compound 82, 12-(3-cyanophenyl)-6,11-dioxo-6,11,12,13-tetrahydrobenzo[f]naphtho[2,3-b][1,4] oxazepine-7,10-diyl diacetate] | 0.18 µM | 
38 | 0.15 µM | CC(=O)Oc1ccc(OC(C)=O)c2c1C(=O)C1=C(C2=O)N(c2ccccc2)Cc2ccccc2O1 [Compound 87, 6,11-dioxo-12-phenyl-6,11,12,13-tetrahydrobenzo[f]naphtho[2,3-b][1,4]oxazepine-7,10-diyl diacetate] | 0.08 µM | 
39 |  | CC(=O)Oc1ccc(O)c2c1C(=O)C1=C(C2=O)N(c2ccccc2)Cc2ccccc2O1 [Compound 88] | 0.08 µM | 
40 |  | CC(=O)Oc1ccc(O)c2c1C(=O)C1=C(Oc3ccccc3CN1c1cccnc1)C2=O [Compound 90] | 0.09 µM | 
41 | 0.15 µM | CC(=O)Oc1ccc(OC(C)=O)c2c1C(=O)C1=C(C2=O)N(c2cccc(C(N)=O)c2)Cc2ccccc2O1 [Compound 92, 12-(3-carbamoylphenyl)-6,11-dioxo-6,11,12,13-tetrahydrobenzo[f]naphtho[2,3-b][1,4] oxazepine-7,10-diyl diacetate] | 0.12 µM | 
42 | 1 µM | COc1ccc(OC)c2c1C(=O)C1=C(C2=O)N(c2cccc(C#N)c2)Cc2ccccc2O1 [Compound 94] |  | 
43 |  | CC(=O)Oc1ccc(OC(C)=O)c2c1C(=O)C1=C(Oc3ccccc3C(c3ccc(N(C)C)nc3)N1)C2=O (centres unmarked) [Compound 95, 12-(6-(dimethylamino)pyridin-3-yl)-6,11-dioxo-6,11,12,13-tetrahydrobenzo[f]naphtha [2,3-b][1,4]oxazepine-7,10-diyl diacetate] |  | IC50 [2]: 0.15 µM
44 |  | CC(=O)Oc1ccc(OC(C)=O)c2c1C(=O)C1=C(Oc3ccccc3C(c3ccc(N4CCOCC4)nc3)N1)C2=O (centres unmarked) [Compound 96, 12-(6-morpholinopyridin-3-yl)-6,11-dioxo-6,11,12,13-tetrahydrobenzo[f]naphtha [2,3-b][1,4] oxazepine-7,10-diyl diacetate] |  | IC50 [2]: 0.13 µM
45 | 5.9 µM | N#Cc1ccc(N2Cc3ccccc3OC3=C2C(=O)c2cccc([N+](=O)[O-])c2C3=O)cc1 [Compound 107] |  | 
46 | 2.95 µM | N#Cc1ccc(N2Cc3ccccc3OC3=C2C(=O)c2c(cccc2[N+](=O)[O-])C3=O)cc1 [Compound 108] |  | 
